Test [1] relates to bronchoconstriction induced by sodium arachidonate. Nature of the test: Dynamic compliance and airway resistance in the anaesthetized guinea pig challenged with sodium arachidonate. Format: in vivo. The procedure: (§1) The ability of Cohn subfraction IV4 and haptoglobin to reduce the transient hypertension caused by administration of sodium arachidonate in the guinea pig was also measured. These tests were carried out as follows.
(§2) Male albino guinea pigs weighing 400-600 g each (Dunkin Hartley strain) were anesthetized by administration of sodium pentobarbitone, 60 mg/kg intraperitoneally. The trachea was cannulated for artificial ventilation by a Starling pump (5-8 ml at 72 strokes per minute) via a Fleisch 0000 pneumatachograph. The difference in pressure across this device was measured with a Grass differential pressure transducer. […] Transpulmonary pressure (TPP) was measured with another differential pressure transducer via side arms to the thoracic cavity and the tracheal cannula. The signals for low and TPP were applied to the analogue computer so that there was approximately 180° phase difference. The computer derived the dynamic compliance and resistance from the in-going signals. Drugs were administered intravenously via the external jugular vein. A 1 mg/ml solution of sodium arachidonate was prepared as follows. […] These doses were given at 30 minute intervals to produce a large but submaximal bronchoconstriction. After 2 or 3 similar responses to the same dose of sodium arachidonate had been obtained, the test substance in saline (0.1 to 1 ml) was injected intravenously. At various times thereafter, a challenge was given.

Test [2] relates to transient hypertension induced by sodium arachidonate. In words: Mean arterial blood pressure in the anaesthetized guinea pig challenged with sodium arachidonate. In kind it is in vivo. The procedure: as §1, §2
The left carotid artery was cannulated for recording blood pressure with a Grass pressure transducer (Consolidated Dynamics 0.75 cm Hg type 4L221) linked to a Devices twin channel polygraph via a CD2D pre-amplifier. Electrocardiograms were recorded using a DC6 pre-amplifier linked to the Devices polygraph.

[3] abbreviates: dose 0.04 mg/kg intravenously, challenge 30 min after treatment.
Setting [4] is: dose 0.20 mg/kg intravenously, challenge 30 min after treatment.
[5] abbreviates: dose 0.50 mg/kg intravenously, challenge 30 min after treatment.
Setting [6] is: dose 0.50 mg/kg intravenously, challenge 60 min after treatment.
Setting [7] is: dose 2 mg/kg intravenously, challenge 45 sec after treatment.
Where [8] appears, read: dose 2 mg/kg intravenously, challenge 30 min after treatment.
Setting [9] is: dose 15 mg/kg intravenously, challenge 45 sec after treatment.
Where [10] appears, read: dose 15 mg/kg intravenously, challenge 10 min after treatment.
Setting [11] is: dose 15 mg/kg intravenously, challenge 30 min after treatment.
[12] abbreviates: dose 15 mg/kg intravenously, challenge 60 min after treatment.
The mark [13] stands for this setting: dose 15 mg/kg intravenously, challenge 90 min after treatment.
The mark [14] stands for this setting: dose 15 mg/kg intravenously, challenge 120 min after treatment.
[15] abbreviates: dose 0.03 mg/kg intravenously, challenge 45 sec after treatment.
Where [16] appears, read: dose 0.10 mg/kg intravenously, challenge 45 sec after treatment.
Where [17] appears, read: dose 25μ/kg intravenously, challenge 30 min after treatment.
Setting [18] is: dose 25μ/kg intravenously, challenge 60 min after treatment.
The mark [19] stands for this setting: dose 25μ/kg intravenously, challenge 90 min after treatment.
Where [20] appears, read: dose 25μ/kg intravenously, challenge 120 min after treatment.
[21] abbreviates: dose 25μ/kg intravenously, challenge 150 min after treatment.
The mark [22] stands for this setting: dose 50μ/kg intravenously, challenge 30 min after treatment.
Setting [23] is: dose 50μ/kg intravenously, challenge 60 min after treatment.
Where [24] appears, read: dose 50μ/kg intravenously, challenge 90 min after treatment.
Where [25] appears, read: dose 50μ/kg intravenously, challenge 120 min after treatment.
The mark [26] stands for this setting: dose 50μ/kg intravenously, challenge 150 min after treatment.
[27] abbreviates: dose 50μ/kg intravenously, challenge 180 min after treatment.
Setting [28] is: dose 50μ/kg intravenously, challenge 210 min after treatment.
Setting [29] is: dose 50μ/kg intravenously, challenge 240 min after treatment.
The mark [30] stands for this setting: dose 5 mg/kg intravenously, challenge 45 sec after treatment.
The mark [31] stands for this setting: dose 20 mg/kg intravenously, challenge 45 sec after treatment.
Setting [32] is: dose 50 mg/kg intravenously, challenge 45 sec after treatment.
Where [33] appears, read: dose 100 mg/kg intravenously, challenge 45 sec after treatment.

Where a name gives a salt, the structure may show the parent alone.

As for `C[C@]12CCC(=O)C=C1CC[C@@H]1[C@@H]2[C@@H](O)C[C@]2(C=O)[C@@H](C(=O)CO)CC[C@@H]12` [Aldosterone, aldosterone], the “Mean % Inhibition (± s.e.) of educed dynamic lung compliance” value in test [1] (setting [3]) stood at 0%; in test [1] (setting [4]), 1.0%; in test [1] (setting [5]), 10.5 ± 6.5%; in test [1] (setting [6]), 5.0 ± 5.0%. Also, the “Mean % Inhibition (± s.e.) of increased airway resistance” value in test [1] (setting [3]) is 9.0%; in test [1] (setting [4]), 14.0%; in test [1] (setting [5]) it was 0%; in test [1] (setting [6]), 6.5 ± 6.5%.

Consider `CC(=O)Oc1ccccc1C(=O)O` [Aspirin, aspirin calcium salt], for which, in test [1] (setting [7]), the “Mean % Inhibition (± s.e.) of educed dynamic lung compliance” value is recorded as 71.5 ± 6.5% and the “Mean % Inhibition (± s.e.) of increased airway resistance” value turned out to be 85.5 ± 3.5%. For the same compound, in test [1] (setting [8]), the “Mean % Inhibition (± s.e.) of educed dynamic lung compliance” value is recorded as 81.5 ± 7.5% and the “Mean % Inhibition (± s.e.) of increased airway resistance” value is given as 91.0 ± 9.0%.

In the case of `C[C@]12CCC(=O)C=C1CC[C@@H]1[C@@H]2[C@@H](O)C[C@@]2(C)[C@H]1CC[C@]2(O)C(=O)COC(=O)CCC(=O)O` [Hydrocortisone, hydrocortisone sodium succinate], the “Mean % Inhibition (± s.e.) of educed dynamic lung compliance” value in test [1] (setting [9]) stood at 15.0 ± 7.5%; in test [1] (setting [10]), 21.3 ± 4.2%; in test [1] (setting [11]) it was 49.0 ± 9.7%; in test [1] (setting [12]), 44.0 ± 6.0%; in test [1] (setting [13]) it was 25.0%; in test [1] (setting [14]), 12.0%. The “Mean % Inhibition (± s.e.) of increased airway resistance” value is on record as 24.0 ± 1.5% in test [1] (setting [9]); 24.3 ± 6.8% in test [1] (setting [10]); 46.2 ± 5.7% in test [1] (setting [11]); 61.0 ± 3.0% in test [1] (setting [12]); 54.0% in test [1] (setting [13]); 17.0% in test [1] (setting [14]). Besides, the “Mean % Inhibition (± s.e.) of hypertension” value is 35.0 ± 2.0% in test [2] (setting [9]), 48.0 ± 18.0% in test [2] (setting [10]), 25.0 ± 25.0% in test [2] (setting [11]) and 25.0% in test [2] (setting [12]).

As to `COc1ccc2c(c1)c(CC(=O)O)c(C)n2C(=O)c1ccc(Cl)cc1` [Indomethacin, indomethacin sodium salt], in test [1] (setting [15]), the “Mean % Inhibition (± s.e.) of educed dynamic lung compliance” value amounted to 58.7 ± 15.7% and the “Mean % Inhibition (± s.e.) of increased airway resistance” value is reported as 47.0 ± 15.8%. Also, in test [1] (setting [16]), the “Mean % Inhibition (± s.e.) of educed dynamic lung compliance” value stood at 85.5 ± 14.5% and the “Mean % Inhibition (± s.e.) of increased airway resistance” value is reported as 90.5 ± 9.5%. Further, in test [2] (setting [15]), the “Mean % Inhibition (± s.e.) of hypertension” value was 65.0 ± 2.1%.

Take “ACTH: a drenocorticotrophin (ACTH), well known anti-inflammatory agent (SYSMEHFRWGKPVGKKRRPVKVYPNGAEDESAEAFPLEF; Corticotropin; UniProt P01189 138-176, looked up)”: the “Mean % Inhibition (± s.e.) of educed dynamic lung compliance” value in test [1] (setting [17]) stood at 16.5 ± 16.5%; in test [1] (setting [18]), 35.5 ± 2.5%; in test [1] (setting [19]) it was 62.5 ± 12.5%; in test [1] (setting [20]), 53.0 ± 3.0%; in test [1] (setting [21]) it was 63.0%; in test [1] (intravenously, challenge 30 min after treatment) it was 67.0%. The “Mean % Inhibition (± s.e.) of educed dynamic lung compliance” value in test [1] (intravenously, challenge 60 min after treatment) is recorded as 50.0%; in test [1] (intravenously, challenge 90 min after treatment), 67.0%; in test [1] (intravenously, challenge 120 min after treatment) it was 75.0%; in test [1] (intravenously, challenge 150 min after treatment), 58.0%; in test [1] (intravenously, challenge 180 min after treatment), 75.0%; in test [1] (intravenously, challenge 210 min after treatment), 75.0%. In test [1] (intravenously, challenge 240 min after treatment), the “Mean % Inhibition (± s.e.) of educed dynamic lung compliance” value came to 75.0%. Further, the “Mean % Inhibition (± s.e.) of increased airway resistance” value was determined as 31.5 ± 24.5% in test [1] (setting [17]); 55.5 ± 3.5% in test [1] (setting [18]); 72.5 ± 12.5% in test [1] (setting [19]); 68.5 ± 16.5% in test [1] (setting [20]); 85.0% in test [1] (setting [21]); 52.0% in test [1] (setting [22]). In addition, the “Mean % Inhibition (± s.e.) of increased airway resistance” value in test [1] (setting [23]) turned out to be 73.0%; in test [1] (setting [24]), 73.0%; in test [1] (setting [25]), 91.0%; in test [1] (setting [26]) it was 68.0%; in test [1] (setting [27]) it was 59.0%; in test [1] (setting [28]), 66.0%. In addition, the “Mean % Inhibition (± s.e.) of increased airway resistance” value in test [1] (setting [29]) was determined as 67.0%. Besides, the “Mean % Inhibition (± s.e.) of hypertension” value in test [2] (setting [17]) came to 24.0 ± 10.0%; in test [2] (setting [18]), 28.5 ± 14.5%; in test [2] (setting [19]), 49.0 ± 15.0%; in test [2] (setting [20]), 53.5 ± 3.5%; in test [2] (setting [21]), 17.0%; in test [2] (setting [22]), 83.0%. In addition, the “Mean % Inhibition (± s.e.) of hypertension” value is on record as 67.0% in test [2] (setting [23]); 100.0% in test [2] (setting [24]); 67.0% in test [2] (setting [25]); 100.0% in test [2] (setting [26]); 83.0% in test [2] (setting [27]); 100.0% in test [2] (setting [28]). In test [2] (setting [29]), the “Mean % Inhibition (± s.e.) of hypertension” value is recorded as 100.0%.

For the compound “Haptoglobin heated to 60° C 15 min: haptoglobin from Cohn subfraction IV4 by ammonium sulphate purification, partially heat-inactivated”, in test [1] (setting [30]), the “Mean % Inhibition (± s.e.) of educed dynamic lung compliance” value worked out at 6.3 ± 6.3% and the “Mean % Inhibition (± s.e.) of increased airway resistance” value came to 10.3 ± 5.2%. Also, in test [2] (setting [30]), the “Mean % Inhibition (± s.e.) of hypertension” value is 7.0 ± 7.0%.

As for “Haptoglobin: obtained from human plasma Cohn subfraction IV4 by ammonium sulphate purification and DEAE cellulose chromatography”, the “Mean % Inhibition (± s.e.) of educed dynamic lung compliance” value in test [1] (setting [30]) was 27.4 ± 5.3%; in test [1] (setting [31]), 34.3 ± 7.4%; in test [1] (setting [32]), 49.0 ± 3.2%; in test [1] (setting [33]) it was 64.0 ± 0%. In addition, the “Mean % Inhibition (± s.e.) of increased airway resistance” value is 31.8 ± 4.7% in test [1] (setting [30]), 44.3 ± 6.7% in test [1] (setting [31]), 67.7 ± 0.3% in test [1] (setting [32]) and 67.0 ± 8.0% in test [1] (setting [33]). Further, the “Mean % Inhibition (± s.e.) of hypertension” value was 34.5 ± 13.9% in test [2] (setting [30]), 83.5 ± 16.5% in test [2] (setting [31]), 90.0 ± 10.0% in test [2] (setting [32]) and 73.0% in test [2] (setting [33]).

Values taken from patent US4129648A, “Method for reducing endogenous prostaglandin synthesis” (priority 1977, dated 1978).
